From patent US12187653B2, “Surface retarder formulation and method for replicating an acid etch or sand blast aspect on cementitious material” (GCP Applied Technologies Inc., priority 2018, dated 2025)

Tests used:
[1] = Cement binding: percent of species absorbed to cement, by ion chromatography; settings: for % adsorbed: 1% acid in 2% KOH solution, 30 g solution on 3 g cement, 10 min; for % binding to cement: Example 6, procedure of Example 1B
Description: Each acid was dissolved at 1% by weight in a 2% by weight KOH solution. Thirty grams of solution was exposed to 3 g of Type I/II cement in a tube, and mixed on a tube rotator for 10 min @ 30 rpm. The resulting slurry was centrifuged for 1 min at 4000 rpm to separate the cement and adsorbed compounds from the soluble species. The soluble portion was filtered with a 0.2 micron syringe filter and then analyzed by ion chromatography using an ICS-2100 RFIC by Dionex with single point calibration with a standard at 100 ppm. Samples and standards were prepared in 50 mM KOH solution. Samples' dilutions were adjusted to be within calibration range. Data analysis run through peak area integration.
The cement binding is expressed as a percent of the species present that absorbed to the cement.

[2] = Etch quality of in-form surface retarder on cast concrete after pressure washing; settings: for surface etch: Example 6, procedure of Example 2
Description: Each was used to make an in-form surface retarder by combining the materials shown below, in the order listed, in a Silverson-high shear rotor-stator mixer at 5000 rpm, and mixing for 10 minutes after the final addition.
The exemplary in-form surface retarder was roller applied in rectangles on a wood form at a rate of 400 ft^2/gallon and allowed to dry for 2 hours at 72° F.
The concrete was poured into the wood form which has the surface retarder paint applied. The concrete was allowed to dry and cure without covering for 22 hours at a temperature of 90° F.
After 22 hours of curing, the concrete was removed from the wood mold and sprayed with high pressure water from a 1900 psi pressure washer to remove the in-form surface retarder and retarded cement paste. Washing continued until water was running clear and no further cement paste is removed (this process removes whatever cement paste that has not hardened to the surface of the concrete due to the retarding effects of the acids tested).

[3] = Table 5: resin in the given solvent
Description: The solubility of resin in various organic solvents was evaluated by observation. A small amount of resin (0.2 g) was placed in a vial with 3 mL of the solvent. Observations were made immediately, after two hours and thirty minutes, and after 15 hours.

[4] = Solubility of acids in water, saturated solution measured by Total Organic Carbon; settings: in 100 mL water, 25° C., stirred 14 hours, TOC
Description: The mixture was allowed to settle and the saturated aqueous solution of acid was decanted. Concentration was measured by Total Organic Carbon using a TOC-L CSH/CSN by Shimadzu. A calibration curve is generate based off a four point calibration of 0 ppm, 25 ppm, 50 ppm, and 100 ppm carbon. Samples are then diluted to a predetermined dilution factor. 20 mL of the diluted samples are acidified to a pH of ^˜2-3 with hydrochloric acid. Samples are run based off the calibration curve performing two 50 uL injections each to determine the total organic carbon of the sample.

[5] = Example 2: retarder with 8 g acid, 400 ft^2/gallon on wood form, concrete cured 22 hours at 90° F., compared to FIG. 1
[6] = Example 3, same procedure as Example 2, tartaric acid forms compared

Molecule | % adsorbed [1] | Etch depth [2, 5] | also measured
O=C(O)C(O)C(O)C(=O)O (racemic) [DL-Tartaric Acid] | 31.6% | just right, light etch showing sand textures | Etch depth [2, 6]: just right, light etch showing sand textures
NCCCCCCCCCCCC(=O)O [12-Aminododecanoic Acid] |  |  | % binding to cement [1]: 90%; surface etch [2]: very light to none
O=C(O)CCCCC(=O)O [Adipic Acid] | 1.1% | Lighter than optimum, not even | 
OB(O)O [Boric Acid by ICP, Boric Acid] |  |  | % binding to cement [1]: 100%
CCCCOC(C)=O [Butyl Acetate] |  |  | Resin solubility [3]: Dissolved
C/C(=C/C(=O)O)C(=O)O [Citraconic Acid] | 1.9% | Lighter than optimum, not even | 
O=C(O)C(O)C(O)C(=O)O (centres unmarked) [D Tartaric Acid] | 29.1% | too deep, coarse aggregates visible | Etch depth [2, 6]: too deep, coarse aggregates visible
O=C[C@H](O)[C@@H](O)[C@H](O)[C@H](O)CO [D-(+)-Glucose] |  |  | % binding to cement [1]: 100%
O=C(O)CN(CCN(CC(=O)O)CC(=O)O)CC(=O)O [Ethylenediamine-tetraacetic] |  |  | % binding to cement [1]: 36%; surface etch [2]: very light to none
O=C(O)CCCC(=O)O [Glutaric Acid] | 0% | just right, light etch showing sand textures | Solubility [4]: 36 g/100 g
O=C(O)C(O)C(O)C(=O)O (centres unmarked) [L Tartaric Acid] | 21.5% | too deep, coarse aggregates visible | Etch depth [2, 6]: too deep, coarse aggregates visible
O=C(O)CC(=O)O [Malonic Acid] | 6.3% | too deep, coarse aggregates visible | 
C/C(=C\C(=O)O)C(=O)O [Mesaconic Acid] | 0% | Very light to none | 
CC(C(=O)O)C(=O)O [Methymalonic Acid, Methylmalonic acid] | 7.0% | Very light to none | Solubility [4]: 5 g/100 g
O=C(O)C(=O)O [Oxalic Acid] | 94.8% | just right, light etch showing sand textures | 
O=C(O)c1ccccc1C(=O)O [Phthalic Acid] | 0% | Very light to none | 
O=C(O)CCC(=O)O [Succinic Acid] | 6.4% | Lighter than optimum, not even | 
O=C(O)/C=C(\CC(=O)O)C(=O)O [trans-Aconitic Acid] |  |  | % binding to cement [1]: 5%
Xylene |  |  | Resin solubility [3]: Dissolved
